Experiment in all cases: relative viability (nuclei count vs DMSO), 5 days (fraction); higher = more cells survive
Compound in test [1]: C[C@@H](N)c1ccc(C(=O)Nc2ccnc3[nH]ccc23)cc1 + CC(C)C[C@H](NC(=O)[C@H](Cc1ccccc1)NC(=O)c1cnccn1)B(O)O [Bortezomib] (partner 0.002 µM)
A digest of the protocol: (§1)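 Relative viability divides the nuclei count in treated wells by that in vehicle wells. Lung cancer cell lines were seeded in 1536-well plates, dosed by pin tool the next day, and fixed and stained after 5 days in one step with final 0.05% Triton X-100, 1% formaldehyde and 1 ug/ml Hoechst. Dosing was a single drug or a fixed anchor-drug dose plus five library-drug doses (not always all listed) in √10 steps, and values are medians of duplicate plates imaged at 4×.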

Compound in test [2]: C1CNCCC1C2=CC(=NN2)C3=CC=NC=C3 + CC(=O)c1c(C)c2cnc(Nc3ccc(N4CCNCC4)cn3)nc2n(C2CCCC2)c1=O [Palbociclib] (partner 0.5 µM)
The method, boiled down:
as §1

Compound in test [3]: C[C@@H](N)c1ccc(C(=O)Nc2ccnc3[nH]ccc23)cc1 + COc1cc2c(Oc3ccc(NC(=O)C4(C(=O)Nc5ccc(F)cc5)CC4)cc3F)ccnc2cc1OCCCN1CCOCC1 [Foretinib] (partner 0.25 µM)
A digest of the protocol:
as §1

Compound in test [4]: C[C@@H](N)c1ccc(C(=O)Nc2ccnc3[nH]ccc23)cc1 + CS(=O)(=O)CCNCc1ccc(-c2ccc3ncnc(Nc4ccc(OCc5cccc(F)c5)c(Cl)c4)c3c2)o1 [Lapatinib] (partner 2 µM)
The method, boiled down: as §1

These results are taken from the supplement of paper PMC10307832.

For SW 1573, the relative viability amounted to 1.08 in test [1] (first compound 0.04 µM); 1.01 in test [1] (first compound 0.1265 µM); 0.939 in test [1] (first compound 0.4 µM); 0.968 in test [1] (first compound 1.265 µM); 0.7 in test [1] (first compound 4 µM); 0.471 in test [2] (first compound 0.8 µM). Besides, the relative viability turned out to be 0.405 in test [2] (first compound 2.53 µM); 0.411 in test [2] (first compound 8 µM); 1.06 in test [3] (first compound 0.04 µM); 0.964 in test [3] (first compound 0.1265 µM); 1.19 in test [3] (first compound 0.4 µM); 0.93 in test [3] (first compound 1.265 µM). The relative viability is 0.849 in test [3] (first compound 4 µM); 1.3 in test [4] (first compound 0.04 µM); 1.14 in test [4] (first compound 0.1265 µM); 1.18 in test [4] (first compound 0.4 µM); 1.04 in test [4] (first compound 1.265 µM); 1.08 in test [4] (first compound 4 µM).
